Data: patent US6642225B2, “Diazacycloalkanedione derivatives” (Novartis AG, priority 2000, dated 2003)

How the values were obtained:
[1] = molecular target: T1, human LFA-1 (Homo sapiens, UniProt P20701); assay: Cell free assay: binding of soluble human ICAM-1 to immobilized human LFA-1
T1 construct: endogenous in cells; host or cells: JY cells (human lymphoblastoid B cell line)
Method: A. In Vitro: Cell Free Assay
The assay measures the binding of soluble human ICAM-1 to immobilized human LFA-1. LFA-1 is purified from JY cells, a human lymphoblastoid B cell-line, by immunoaffinity chromatography as described by Dustin et al. (J. Immunol. 148, 2654-2663, 1992). ICAM-1 mouse Cκ fusion protein (ICAM-1) is produced using the baculovirus system as described by Weitz-Schmidt et al. (Anal. Biochem.238, 184-190, 1996).
Purified LFA-1 is diluted 1:20 in phosphate buffered saline (PBS) containing 2 mM MgCl2, pH 7.4 and coated onto microtitre plates (Nunc) at 37° C. for 3 h. Plates are blocked with 1% heat-treated BSA in PBS for 2 hours at 37° C. followed by a washing step using PBS, 2 mM MgCl2, 1% fetal calf serum, pH 7.4 (assay buffer). Compounds dissolved at 10 mM in DMSO are diluted in assay buffer and added to the plates. Biotinylated recombinant ICAM-1 in assay buffer (6 μg/ml) is added and allowed to bind at 37° C. for one hour. After incubation, wells are washed with assay buffer. Streptavidin-peroxidase diluted 1:5000 in assay buffer is added and incubated for 45 min at 37° C. Plates are then washed with assay buffer and 2,2′-azino-bis(3-ethylbenzothiazoline-6 sulfonic acid) diammonium salt substrate solution is added to each well. The reaction is stopped after 20 min and bound ICAM-1 is determined by measuring the optical density at 405 nm in a microplate reader.

[2] = tested on: carrageenan paw swelling; assay: Rat carrageenan edema model; assay type: in vivo, OFA rats; details: about 0.3 to 30 mg/kg p.o.
Method: iii) Rat Carrageenan Edema Model Male OFA rats are treated orally with the compound to be tested or vehicle (saline). One to three hours later (0 hours) the rats receive a 100 μl intra-plantar injection of a 1% w/v carrageenan solution in 0.9% saline in the hind paw and the diameter of the paw is measured by means of a micro-calliper. The paw diameter measurements are repeated at times +3 and +5 hours after injection of the carrageenan.

[3] = tested on: mBSA antigen-induced arthritis; assay: Mouse antigen-induced arthritis model; assay type: in vivo, OFA-1 mice; details: about 0.3 to 30 mg/kg p.o.
Method: iv) Mouse Antigen-induced Arthritis Model The test for rheumatoid arthritis is carried out by a modification of that described by Van de Loo et al., Arthritis Rheum. 1995; 35:164-172, e.g., as follows: Female OFA-1 mice are sensitised intradermally on the back at two sites to methylated bovine serum albumin (mBSA) homogenised 1:1 with complete Freund's adjuvant on days −21 and −14 (0.1 ml containing 1 mg/ml mBSA). On day 0, the right knee receives 10 μl of 10 mg/ml mBSA in 5% glucose solution (antigen injected knee), while the left knee receives 10 μl of 5% glucose solution alone (vehicle injected knee). The diameters of the left and right knees are then measured using calipers immediately after the intra-articular injections and again on days 2, 4, 7, 9, 11 and 14. […] Right knee swelling is calculated as a ratio of left knee swelling, and the R/L knee swelling ratio plotted against time to give Area Under the Curve (AUC) graphs for control and treatment groups. The percentage inhibition of the individual treatment group AUCs are calculated vs the control group AUC (0% inhibition) using an Excel spreadsheet. […] After staining, the slides are number coded as left knee/right knee pairs from each animal and scored in a blinded fashion for inflammatory cell infiltrate/hyperplasia, joint damage/erosions and cartilage proteoglycan loss.

T1 sequence (P20701 26-1170): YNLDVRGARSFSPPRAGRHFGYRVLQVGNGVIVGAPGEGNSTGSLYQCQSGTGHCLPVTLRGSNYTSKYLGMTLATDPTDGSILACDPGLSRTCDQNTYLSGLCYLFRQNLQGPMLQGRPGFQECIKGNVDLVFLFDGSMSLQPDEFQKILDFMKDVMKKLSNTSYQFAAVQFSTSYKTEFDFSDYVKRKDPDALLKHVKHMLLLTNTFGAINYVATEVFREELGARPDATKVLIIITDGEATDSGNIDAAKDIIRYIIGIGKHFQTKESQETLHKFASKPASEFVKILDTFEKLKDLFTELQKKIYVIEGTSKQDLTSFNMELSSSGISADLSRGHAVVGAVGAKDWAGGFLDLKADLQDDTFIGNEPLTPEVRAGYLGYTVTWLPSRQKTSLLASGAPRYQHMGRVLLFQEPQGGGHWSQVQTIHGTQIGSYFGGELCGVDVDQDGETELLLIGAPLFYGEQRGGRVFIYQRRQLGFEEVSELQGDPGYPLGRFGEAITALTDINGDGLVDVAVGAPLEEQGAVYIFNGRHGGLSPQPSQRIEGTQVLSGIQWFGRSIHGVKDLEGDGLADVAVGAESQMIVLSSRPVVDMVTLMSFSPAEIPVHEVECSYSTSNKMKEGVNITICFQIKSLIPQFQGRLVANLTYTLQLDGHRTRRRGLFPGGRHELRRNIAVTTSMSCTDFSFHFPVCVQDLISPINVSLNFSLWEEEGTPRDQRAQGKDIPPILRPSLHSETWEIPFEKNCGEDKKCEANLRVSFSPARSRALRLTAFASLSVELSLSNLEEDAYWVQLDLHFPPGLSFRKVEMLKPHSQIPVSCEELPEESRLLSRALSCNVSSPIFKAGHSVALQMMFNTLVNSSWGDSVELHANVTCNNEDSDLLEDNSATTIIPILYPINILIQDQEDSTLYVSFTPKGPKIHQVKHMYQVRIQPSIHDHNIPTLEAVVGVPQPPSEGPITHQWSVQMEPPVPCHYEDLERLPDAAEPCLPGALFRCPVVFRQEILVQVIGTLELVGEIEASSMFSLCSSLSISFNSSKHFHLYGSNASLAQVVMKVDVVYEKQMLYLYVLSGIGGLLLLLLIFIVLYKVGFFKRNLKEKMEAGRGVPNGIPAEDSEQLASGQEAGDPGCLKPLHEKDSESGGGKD
T1 sequence (P05107 23-769 partner): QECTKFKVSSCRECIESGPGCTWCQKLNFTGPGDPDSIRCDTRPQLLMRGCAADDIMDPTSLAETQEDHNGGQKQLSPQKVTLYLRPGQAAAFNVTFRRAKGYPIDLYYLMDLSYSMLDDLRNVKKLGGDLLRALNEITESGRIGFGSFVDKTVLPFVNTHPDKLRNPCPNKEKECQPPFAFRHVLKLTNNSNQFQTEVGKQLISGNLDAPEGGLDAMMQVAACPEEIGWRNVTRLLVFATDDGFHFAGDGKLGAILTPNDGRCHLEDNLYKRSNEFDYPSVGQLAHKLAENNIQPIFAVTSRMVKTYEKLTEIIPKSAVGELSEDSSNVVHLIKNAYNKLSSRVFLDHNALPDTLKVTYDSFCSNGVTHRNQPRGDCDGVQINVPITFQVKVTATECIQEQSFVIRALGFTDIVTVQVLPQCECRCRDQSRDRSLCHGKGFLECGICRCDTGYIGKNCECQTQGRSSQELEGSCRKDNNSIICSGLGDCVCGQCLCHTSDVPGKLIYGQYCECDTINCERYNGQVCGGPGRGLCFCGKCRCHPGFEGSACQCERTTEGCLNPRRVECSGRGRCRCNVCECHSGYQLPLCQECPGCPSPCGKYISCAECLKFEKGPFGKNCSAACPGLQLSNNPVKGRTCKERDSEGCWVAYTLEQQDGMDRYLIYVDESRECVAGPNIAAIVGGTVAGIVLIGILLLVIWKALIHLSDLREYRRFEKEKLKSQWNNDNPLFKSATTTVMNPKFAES

CNC(=O)[C@H](Cc1ccc2ccccc2c1)N1CCC(=O)N(Cc2cnc3ccccc3c2)[C@@H](CC(C)C)C1=O [Example 1, 1H-1,4-Diazepine-1-acetamide, hexahydro-N-methyl-3-(2-methylpropyl)-α-[(2-naphthalenyl)methyl]-2,5-dioxo-4-[(3-quinolinyl)methyl]-, (αS,3S)-]
IC50 [1]: ~30 nM
inhibition of paw swelling [2]: inhibits paw swelling
inhibition of knee swelling [3]: inhibits knee swelling
histological damage to the knee ([3]; day 14 histology): significantly reduces the histological damage to the knee
